Assay results: patent publication US20180221487A1, “NOVEL PROTEIN TRANSFECTION COMPOSITIONS AND USES THEREOF” (Chang Gung Memorial Hospital, Linkou, priority 2017, published 2018)
“Also recorded” adds a separate entry of the source.

Legend:
[1] = system: human ovarian cancer cells; assay: HEPES-mediated protein transfection pathway with endocytic inhibitors; format: cell-based; conditions: pretreatment 30 min: 0.2-0.4 M sucrose, 5 μg/ml filipin or 0.0125-0.25 mM amiloride; 20 mM HEPES; after 4 hours and 24 hours
Method: Immunofluorescent staining procedure: After protein transfection is completed, the cells in the culture dish were washed three times with phosphate buffered saline (PBS) and fixed with 4% paraformaldehyde for 20 min. The cells were washed again with PBS, perforated with 0.1% Triton X-100 for 5 min, and blocked with 10% BSA for 30 min. For Alexa Fluor 488 anti-mouse IgGs, cells were stained with DAPI for 10 min. For B23, histone 1 or GAPDH antibody transfection, cells were stained with Alexa Fluor 488 or 546 anti-mouse IgG antibodies for 30 min and then stained with DAPI. For […]1 proteins or Flag-Rev peptides transfection, cells were stained with anti-v5 or anti-flag antibodies, respectively, and then stained with Alexa Fluor 488 anti-mouse IgG and DAPI. All images were detected by confocal microscopes (Leica, Wetzlar, Germany). The fluorescent signals were analyzed and quantified by Q-Win software (Leica, Wetzlar, Germany). An in vitro evaluation of HEPES-mediated protein transfection pathway was performed using the following endocytic inhibitors: sucrose (a clathrin-mediated endocytic inhibitor), filipin (a caveolae-mediated endocytic inhibitor) and amiloride (a macropinocytic inhibitor). Human ovarian cancer cells were pretreated with Opti-MEM (the control group), 0.2-0.4 M sucrose, 5 μg/ml filipin or 0.0125-0.25 mM amiloride for 30 min, followed by the transfection of Alexa Fluor 488 anti-mouse IgG antibodies using 20 mM HEPES buffer according to the steps in Example 1. The IgG antibody transfection efficiency was assessed by confocal fluorescent microscopy. […] The fluorescent signals of IgG were quantified by Q-Win software, expressed as a relative ratio in FIGS. 12C and 12D (error bars indicate s.e.m. (n=3) and asterisk denotes significant difference, P<0.001). […] The HEPES mediated protein transfection is induced by at least one of the following pathways: clathrin-mediated or caveolae-mediated endocytosis, or macropinocytosis.

[2] = system: human ovarian cancer cells; assay: Cytotoxicity of HEPES buffer concentrations (MTT and LDH assay); format: cell-based; conditions: Opti-MEM and HEPES buffer 0-200 mM, 24 h
Method: (§1) MTT and LDH assay: In MTT assay, the cells were incubated for 24 h and then centrifuged at 1500 rpm for 5 min. The supernatants were discarded and attached cells were analyzed by MTT reagent (Promega Corporation, Wisconsin, US). In LDH assay, the cells were incubated for […] and then centrifuged at 1500 rpm for 5 min. The supernatants were collected and analyzed by LDH reagent (Sigma, St. Louis, Mo., USA). The cell viability (MTT assay) and cytotoxicity (LDH assay) were assayed following the manufacturer's protocol. The MTT and LDH signals were detected by ELISA Reader (Tecan Systems, Inc., San Jose, Calif., USA).
(§2) The cytotoxicity of various HEPES buffer concentrations was evaluated. Human ovarian cancer cells and endometrial cancer cells were incubated in Opti-MEM and HEPES buffer (0-200 mM) for 24 h. Cell viability and cytotoxicity were analyzed by MTT and LDH assay, respectively.

endometrial cancer cells = assay: as above; format: cell-based, human; conditions: Opti-MEM and HEPES buffer 0-200 mM, 24 h
Method: as §1, §2

[3] = system: human ovarian cancer cells (MDAH2774); assay: Protein transfection, immunofluorescent staining / confocal microscopy; format: cell-based
Method: Immunofluorescent staining procedure: After protein transfection is completed, the cells in the culture dish were washed three times with phosphate buffered saline (PBS) and fixed with 4% paraformaldehyde for 20 min. The cells were washed again with PBS, perforated with 0.1% Triton X-100 for 5 min, and blocked with 10% BSA for 30 min. For Alexa Fluor 488 anti-mouse IgGs, cells were stained with DAPI for 10 min. For B23, histone 1 or GAPDH antibody transfection, cells were stained with Alexa Fluor 488 or 546 anti-mouse IgG antibodies for 30 min and then stained with DAPI. For rhSTIP1 proteins or Flag-Rev peptides transfection, cells were stained with anti-v5 or anti-flag antibodies, respectively, and then stained with Alexa Fluor 488 anti-mouse IgG and DAPI. All images were detected by confocal microscopes (Leica, Wetzlar, Germany). The fluorescent signals were analyzed and quantified by Q-Win software (Leica, Wetzlar, Germany).
FIG. 1 schematically illustrates the protein transfection procedure. Briefly, the protein of interest and a protein transfection composition, such as HEPES buffer, were mixed and incubated for about 15 min to about 30 min to form a mixture (Panel A). Cells to be transfected were replaced in a minimal essential medium (Panel B). The mixture in Panel A was added to the cells in Panel B and incubated at 37° C. for about 4 to about 24 hours (Panel C). The protein transfection efficiency can be analyzed using immunofluorescent staining or flow cytometry (Panel D).
An in vitro evaluation of the optimal protein transfection condition was performed. According to the steps in FIG. 1. rhSTIP1 was incubated with HEPES buffers of different concentrations (5 or 20 mM) or Opti-MEM (control) at room temperature for about 15 minutes to form the protein mixtures to transfect human ovarian cancer cells. The mixtures were added to the cell culture dish comprising Opti-MEM and incubated at 37° C. for about 4 to about 24 hours.
Different amounts of Alexa Fluor® 488 anti-mouse IgG (0, 2, 4, 8, or 16 μg) were incubated with 20 mM HEPES buffer and mixed with ovarian (MDAH2774) cancer cells in Opti-MEM.
Alexa Fluor 488 anti-mouse IgG antibodies were mixed with 20 mM HEPES to form a mixture. […] Protein transfection efficiency was assessed using confocal fluorescent microscope.
The following proteins were incubated with Opti-MEM (control group) or 20-30 mM HEPES buffer to transfect ovarian cancer cells (MDAH2774 or MOSEC) or endometrial cancer cells: Alexa Fluor 488-conjugated, anti-mouse IgG antibody (about 150 kDa), anti-B23 antibody, anti-histone 1 antibody, anti-STIP1 antibody, rhSTIP1 protein (62.6 kDa), Flag-Rev peptide (<5 kDa) and FITC-Rev peptide (<5 kDa). […] Protein transfection efficiency was assessed by staining the transfected cancer cells with Alexa Fluor 488 or 594 anti-mouse IgG antibodies (for Alexa Fluor 488-conjugated anti-mouse IgG antibody, anti-B23 antibody, anti-histone 1 antibody, anti-STIP1 antibody), v5 antibody (for rhSTIP1), or anti-Flag antibody (for Flag-Rev peptide), and fluorescent signals were analyzed with confocal microscopy.
The protein transfection efficiency of HEPES was compared to other commercial reagents, such as PULsin™, ProteoJuice™, Pro-Ject™, Xfect™, and BioPORTER®. […] The transfected ovarian cancer cells were stained with Alexa Fluor 488 anti-mouse IgG antibodies and protein transfection efficiency was assessed by confocal fluorescent microscopy.

brain tumor = assay: Alexa Fluor 488 anti-mouse IgG transfection, immunofluorescent staining; format: cell-based; conditions: HEPES buffer 20 mM-40 mM
Method: (§3) Immunofluorescent staining procedure: After protein transfection is completed, the cells in the culture dish were washed three times with phosphate buffered saline (PBS) and fixed with 4% paraformaldehyde for 20 min. The cells were washed again with PBS, perforated with 0.1% Triton X-100 for 5 min, and blocked with 10% BSA for 30 min. For Alexa Fluor 488 anti-mouse IgGs, cells were stained with DAPI for 10 min. For B23, histone 1 or GAPDH antibody transfection, cells were stained with Alexa Fluor 488 or 546 anti-mouse IgG antibodies for 30 min and then stained with DAPI. For […]1 proteins or Flag-Rev peptides transfection, cells were stained with anti-v5 or anti-flag antibodies, respectively, and then stained with Alexa Fluor 488 anti-mouse IgG and DAPI. All images were detected by confocal microscopes (Leica, Wetzlar, Germany). The fluorescent signals were analyzed and quantified by Q-Win software (Leica, Wetzlar, Germany). FIG. 1 schematically illustrates the protein transfection procedure. Briefly, the protein of interest and a protein transfection composition, such as HEPES buffer, were mixed and incubated for about 15 min to about 30 min to form a mixture (Panel A). Cells to be transfected were replaced in a minimal essential medium (Panel B). The mixture in Panel A was added to the cells in Panel B and incubated at 37° C. for about 4 to about 24 hours (Panel C). The protein transfection efficiency can be analyzed using immunofluorescent staining or flow cytometry (Panel D). Alexa Fluor 488 anti-mouse IgG or […]1 were incubated with Opti-MEM (the control group) or HEPES buffer (20 mM-40 mM) to transfect the following cancer cells according to the steps in Example 1: human cervical cancer cells, human breast cancer cells (MCF7, BRCA009 or BRCA011), human endometrial cancer cells, lung adenocarcinoma cells, human pancreatic cancer cells, hepatocellular carcinoma cells, scarcoma cells, renal cell carcinoma cells, lymphoma cells, nasopharyngeal carcinoma cells, brain tumor cells, colon cancer cells, and leukemic cells. The protein transfection efficiency was assessed by flow cytometry or confocal microscope.

colon cancer = assay: as above; format: cell-based; conditions: HEPES buffer 20 mM-40 mM
Method: as §3

leukemia cells = assay: as above; format: cell-based; conditions: HEPES buffer 20 mM-40 mM
Method: as §3

nasopharyngeal carcinoma = assay: as above; format: cell-based; conditions: HEPES buffer 20 mM-40 mM
Method: as §3

non Hodgkin's lymphoma = assay: as above; format: cell-based; conditions: HEPES buffer 20 mM-40 mM
Method: as §3

renal cell carcinoma = assay: as above; format: cell-based; conditions: HEPES buffer 20 mM-40 mM
Method: as §3

scarcoma cells = assay: as above; format: cell-based; conditions: HEPES buffer 20 mM-40 mM
Method: as §3

[4] = system: breast cancer cells (BRCA009); assay: as above; format: cell-based, human; conditions: after 6 hours of incubation
Method: (§4) Immunofluorescent staining procedure: After protein transfection is completed, the cells in the culture dish were washed three times with phosphate buffered saline (PBS) and fixed with 4% paraformaldehyde for 20 min. The cells were washed again with PBS, perforated with 0.1% Triton X-100 for 5 min, and blocked with 10% BSA for 30 min. For Alexa Fluor 488 anti-mouse IgGs, cells were stained with DAPI for 10 min. For B23, histone 1 or GAPDH antibody transfection, cells were stained with Alexa Fluor 488 or 546 anti-mouse IgG antibodies for 30 min and then stained with DAPI. For […]1 proteins or Flag-Rev peptides transfection, cells were stained with anti-v5 or anti-flag antibodies, respectively, and then stained with Alexa Fluor 488 anti-mouse IgG and DAPI. All images were detected by confocal microscopes (Leica, Wetzlar, Germany). The fluorescent signals were analyzed and quantified by Q-Win software (Leica, Wetzlar, Germany). FIG. 1 schematically illustrates the protein transfection procedure. Briefly, the protein of interest and a protein transfection composition, such as HEPES buffer, were mixed and incubated for about 15 min to about 30 min to form a mixture (Panel A). […] The protein transfection efficiency can be analyzed using immunofluorescent staining or flow cytometry (Panel D). […] The protein transfection efficiency was assessed by flow cytometry or confocal microscope.

[5] = system: breast cancer cells (BRCA011); assay: as above; format: cell-based, human; conditions: after 24 hours of incubation
Method: as §4

Structure (SMILES): CCCCC[C@@H](O)[C@H]1C(=O)O[C@H](C)[C@@H](O)/C=C/C=C/C=C/C=C/C=C(\C)[C@@H](O)C[C@H](O)C[C@H](O)C[C@H](O)C[C@H](O)C[C@H](O)C[C@@H]1O [filipin]
- effect on HEPES-mediated IgG transfection [1]: reduced

Structure (SMILES): O=S(=O)(O)CCN1CCN(CCO)CC1 [HEPES buffer, 4-(2-hydroxyethyl)-1-piperazineethanesulfonic acid]
- HEPES buffer concentration at which cell growth was inhibited [2]: 50 mM
- HEPES buffer concentration at which cell growth was inhibited (endometrial cancer cells): 50 mM
- transfection of Alexa Fluor 488 anti-mouse IgG antibody in the cytoplasm compared to control group (Opti-MEM) ([3]; 20-30 mM HEPES buffer, confocal microscopy): increased
- IgG transfection efficiency compared to commercial protein transfection reagents ([3]; anti-GAPDH antibody, HEPES buffer 20 mM vs PULSin, ProteoJuice, Pro-Ject, Xfect, BioPorter): comparable
- protein transfection efficiency, second incubation time 24 hours compared to 4 hours ([3]; rhSTIP1, 5 mM HEPES buffer): improved
- protein transfection efficiency as a function of HEPES concentration ([3]; rhSTIP1 incubated with HEPES about 15 min, cells in Opti-MEM 4 to 24 hours): increases with a higher HEPES concentration; also recorded: does not increase further with HEPES concentration higher than 30 to 50 mM
- Alexa Fluor 488 anti-mouse IgG signal using HEPES buffer compared to Opti-MEM (brain tumor): increased
- Alexa Fluor 488 anti-mouse IgG signal using HEPES buffer compared to Opti-MEM (colon cancer): increased
- Alexa Fluor 488 anti-mouse IgG signal using HEPES buffer compared to Opti-MEM (leukemia cells): increased
- Alexa Fluor 488 anti-mouse IgG signal using HEPES buffer compared to Opti-MEM (nasopharyngeal carcinoma): increased
- Alexa Fluor 488 anti-mouse IgG signal using HEPES buffer compared to Opti-MEM (non Hodgkin's lymphoma): increased
- Alexa Fluor 488 anti-mouse IgG signal using HEPES buffer compared to Opti-MEM (renal cell carcinoma): increased
- Alexa Fluor 488 anti-mouse IgG signal using HEPES buffer compared to Opti-MEM (scarcoma cells): increased
- Alexa Fluor 488 anti-mouse IgG signal using HEPES buffer compared to Opti-MEM [4]: increased
- Alexa Fluor 488 anti-mouse IgG signal using HEPES buffer compared to Opti-MEM [5]: increased

Structure (SMILES): N=C(N)NC(=O)c1nc(Cl)c(N)nc1N [amiloride]
- effect on HEPES-mediated IgG transfection [1]: reduced

Structure (SMILES): OC[C@H]1O[C@@](CO)(O[C@H]2O[C@H](CO)[C@@H](O)[C@H](O)[C@H]2O)[C@@H](O)[C@@H]1O [sucrose]
- effect on HEPES-mediated IgG transfection [1]: reduced
